In patent US9924717B2, “Molecules having pesticidal utility, and intermediates, compositions, and processes, related thereto” (Dow AgroSciences LLC, priority 2016, dated 2018):
Like-named read-outs stand apart in the source and are kept apart here.

Tests used:
Type in all cases: in vivo
[1] = system: Beet Armyworm (Spodoptera exigua, LAPHEG) (BAW); experiment: Bioassays on Beet Armyworm (BAW), 128-well diet tray assay; details: for pest or weed control at 50 µg/cm2: Table ABC rating, Beet Armyworm; for mortality at 5 µg/cm2: 168 h, diet tray, second instar larvae, five to seven days, read-out: Percent control (or mortality) BAW
Protocol: (§1) Example A: Bioassays on Beet Armyworm (Spodoptera exigua, LAPHEG) (“BAW”), Corn Earworm (Helicoverpa zea, Helize) (“CEW”), and Cabbage Looper (Trichoplusia ni, TRIPNI) (“CL”)
(§2) Certain molecules disclosed in this document were tested against BAW, CEW, and CL using procedures described in the following examples. In the reporting of the results, the “BAW, CEW, & CL Rating Table” was used (See Table Section).
Bioassays on BAW were conducted using a 128-well diet tray assay. one to five second instar BAW larvae were placed in each well (3 mL) of the diet tray that had been previously filled with 1 mL of artificial diet to which 50 μg/cm^2 of the test molecule (dissolved in 50 μL of 90:10 acetone-water mixture) had been applied (to each of eight wells) and then allowed to dry. Trays were covered with a clear self-adhesive cover and held at 25° C., 14:10 light-dark for five to seven days. Percent mortality was recorded for the larvae in each well; activity in the eight wells was then averaged. The results are indicated in the table entitled “Table ABC: Biological Results” (See Table Section).
(§3) Bioassays on BAW and CL were conducted according to the procedures outlined in Example A: Bioassays on Beet Armyworm (“BAW”) and Cabbage Looper (“CL”) using the indicated concentrations.

[2] = system: Yellow Fever Mosquito (Aedes aegypti, AEDSAE) (YFM); experiment: Bioassays on Yellow Fever Mosquito (YFM), 96-well plate larval assay; details: Table ABC rating
Protocol: Example C: Bioassays on Yellow Fever Mosquito (Aedes aegypti, AEDSAE) (“YFM”)
Certain molecules disclosed in this document were tested against YFM using procedures described in the following paragraph. In the reporting of the results, the “GPA & YFM Rating Table” was used (See Table Section).
Master plates containing 400 μg of a molecule dissolved in 100 μL of dimethyl sulfoxide (DMSO) (equivalent to a 4000 ppm solution) are used. A master plate of assembled molecules contains 15 μL per well. To this plate, 135 μL of a 90:10 water:acetone mixture is added to each well. A robot (Biomek® NXP Laboratory Automation Workstation) is programmed to dispense 15 μL aspirations from the master plate into an empty 96-well shallow plate (“daughter” plate). There are 6 reps (“daughter” plates) created per master. The created daughter plates are then immediately infested with YFM larvae.
The day before plates are to be treated, mosquito eggs are placed in Millipore water containing liver powder to begin hatching (4 g. into 400 mL). After the daughter plates are created using the robot, they are infested with 220 μL of the liver powder/larval mosquito mixture (about 1 day-old larvae). After plates are infested with mosquito larvae, a non-evaporative lid is used to cover the plate to reduce drying. Plates are held at room temperature for 3 days prior to grading. After 3 days, each well is observed and scored based on mortality. The results are indicated in the table entitled “Table ABC: Biological Results” (See Table Section).

[3] = system: Cabbage Looper (Trichoplusia ni, TRIPNI) (CL); experiment: Bioassays on Cabbage Looper (CL), 128-well diet tray assay; details: for pest or weed control at 50 µg/cm2: Table ABC rating, Cabbage Looper; for mortality at 5 µg/cm2: 168 h, diet tray, second instar larvae, five to seven days, read-out: Percent control (or mortality) CL
Protocol: as §1, §2
Bioassays on CL were conducted using a 128-well diet tray assay. one to five second instar CL larvae were placed in each well (3 mL) of the diet tray that had been previously filled with 1 mL of artificial diet to which 50 μg/cm^2 of the test molecule (dissolved in 50 μL of 90:10 acetone-water mixture) had been applied (to each of eight wells) and then allowed to dry. Trays were covered with a clear self-adhesive cover and held at 25° C., 14:10 light-dark for five to seven days. Percent mortality was recorded for the larvae in each well; activity in the eight wells was then averaged. The results are indicated in the table entitled “Table ABC: Biological Results” (See Table Section).
as §3

[4] = 5 μg/cm^2 (first BAW/CL column pair)
[5] = 5 μg/cm^2 as printed (second BAW/CL column pair)

| Structure (SMILES) | pest or weed control at 50 µg/cm2 [1] | YFM [2] | pest or weed control at 50 µg/cm2 [3] | mortality at 5 µg/cm2 [1, 4] | mortality at 5 µg/cm2 [1, 5] | mortality at 5 µg/cm2 [3, 4] | mortality at 5 µg/cm2 [3, 5] |
| --- | --- | --- | --- | --- | --- | --- | --- |
| CC(NC(=O)c1ccc(/C(F)=C/C(c2cc(Cl)c(Cl)c(Cl)c2)C(F)(F)F)cc1C(F)(F)F)c1ccccn1 (stereo not shown) [F52, (Z)—N-(1-(Pyridin-2-yl)ethyl)-4-(1,4,4,4-tetrafluoro-3-(3,4,5-trichlorophenyl)but-1-en-1-yl)-2-(trifluoromethyl)benzamide] | 50 to 100% | A (80-100) | 50 to 100% |  |  |  |  |
| O=C(NC1CCC(F)(F)CC1)c1ccc(/C(F)=C/C(c2ccc(Cl)c(Cl)c2)C(F)(F)F)cc1C(F)(F)F (stereo not shown) [F24, (Z)-4-(3-(3,4-Dichlorophenyl)-1,4,4,4-tetrafluorobut-1-en-1-yl)-N-(4,4-difluorocyclohexyl)-2-(trifluoromethyl)benzamide] | 50 to 100% | A (80-100) | 50 to 100% |  |  |  |  |
| O=C(NC1CCC(F)(F)CC1)c1ccc(/C(F)=C/C(c2cc(Cl)c(Br)c(Cl)c2)C(F)(F)F)cc1C(F)(F)F (stereo not shown) [F21] | 50 to 100% | A (80-100) | 50 to 100% |  |  |  |  |
| O=C(NC1CC1)c1ccc(/C(F)=C/C(c2cc(Cl)c(F)c(Cl)c2)C(F)(F)F)cc1C(F)(F)F (stereo not shown) [F43, (Z)—N-Cyclopropyl-4-(3-(3,5-dichloro-4-fluorophenyl)-1,4,4,4-tetrafluorobut-1-en-1-yl)-2-(trifluoromethyl)benzamide] | 50 to 100% | A (80-100) | 50 to 100% |  |  |  |  |
| CN(CC(F)(F)F)C(=S)c1ccc(/C(F)=C/C(c2cc(Cl)c(Cl)c(Cl)c2)C(F)(F)F)cc1C(F)(F)F (stereo not shown) [F34, (Z)—N-Methyl-4-(1,4,4,4-tetrafluoro-3-(3,4,5-trichlorophenyl)but-1-en-1-yl)-N-(2,2,2-trifluoroethyl)-2-(trifluoromethyl)benzothioamide] | 50 to 100% | B (More than 0-Less than 80) | 50 to 100% |  |  |  |  |
| O=C(NCc1ccccn1)c1ccc(/C(F)=C/C(c2cc(Cl)c(Cl)c(Cl)c2)C(F)(F)F)cc1C(F)(F)F (stereo not shown) [F51, (Z)—N-(Pyridin-2-ylmethyl)-4-(1,4,4,4-tetrafluoro-3-(3,4,5-trichlorophenyl)but-1-en-1-yl)-2-(trifluoromethyl)benzamide] | 50 to 100% | A (80-100) | 50 to 100% |  |  |  |  |
| O=C(NC1CCC(F)(F)CC1)c1ccc(/C(F)=C/C(c2ccc(Br)c(Br)c2)C(F)(F)F)cc1C(F)(F)F (stereo not shown) [F44, (Z)-4-(3-(3,4-Dibromophenyl)-1,4,4,4-tetrafluorobut-1-en-1-yl)-N-(4,4-difluorocyclohexyl)-2-(trifluoromethyl)benzamide] | 50 to 100% | A (80-100) | 50 to 100% |  |  |  |  |
| O=C(NC1CC1)c1ccc(/C(F)=C/C(c2cc(Br)c(Cl)c(Br)c2)C(F)(F)F)cc1C(F)(F)F (stereo not shown) [F12, (Z)—N-cyclopropyl-4-(3-(3,5-dibromo-4-chlorophenyl)-1,4,4,4-tetrafluorobut-1-en-1-yl)-2-(trifluoromethyl)benzamide] | 50 to 100% | A (80-100) | 50 to 100% |  |  |  |  |
| CC(NC(=O)c1ccc(/C(F)=C/C(c2cc(Cl)c(F)c(Cl)c2)C(F)(F)F)cc1C(F)(F)F)C(F)(F)F (stereo not shown) [F27, (Z)-4-(3-(3,5-Dichloro-4-fluorophenyl)-1,4,4,4-tetrafluorobut-1-en-1-yl)-2-(trifluoromethyl)-N-(1,1,1-trifluoropropan-2-yl)benzamide] | 50 to 100% | A (80-100) | 50 to 100% |  |  |  |  |
| O=C(NCC(F)(F)F)c1ccc(/C(F)=C/C(c2cc(Cl)c(Cl)c(Cl)c2)C(F)(F)F)c2ccccc12 (stereo not shown) [PF1, (Z)-4-(1,4,4,4-Tetrafluoro-3-(3,4,5-trichlorophenyl)but-1-en-1-yl)-N-(2,2,2-trifluoroethyl)-1-naphthamide] | 50 to 100% | A (80-100) | 50 to 100% |  |  |  |  |
| O=C(Nc1ccc(Cl)nc1)c1ccc(/C(F)=C/C(c2cc(Cl)c(Cl)c(Cl)c2)C(F)(F)F)cc1C(F)(F)F (stereo not shown) [F26] | 50 to 100% | A (80-100) | 50 to 100% |  |  |  |  |
| O=C(NC1CCC(F)(F)CC1)c1ccc(/C(F)=C/C(c2cc(Cl)c(F)c(Cl)c2)C(F)(F)F)cc1C(F)(F)F (stereo not shown) [F41, (Z)-4-(3-(3,5-Dichloro-4-fluorophenyl)-1,4,4,4-tetrafluorobut-1-en-1-yl)-N-(4,4-difluorocyclohexyl)-2-(trifluoromethyl)benzamide] | 50 to 100% | A (80-100) | 50 to 100% |  |  |  |  |
| C[C@H](CNCC(F)(F)F)NC(=O)c1ccc(/C(F)=C/C(c2cc(Cl)c(Cl)c(Cl)c2)C(F)(F)F)cc1C(F)(F)F (stereo partly drawn) [F61, 4-((Z)-1,4,4,4-Tetrafluoro-3-(3,4,5-trichlorophenyl)but-1-en-1-yl)-N—((R)-1-((2,2,2-trifluoroethyl)amino)propan-2-yl)-2-(trifluoromethyl)benzamide] | 50 to 100% |  | 50 to 100% |  |  |  |  |
| O=C(NC1CC(F)(F)C1)c1ccc(/C(F)=C/C(c2ccc(F)c(Cl)c2)C(F)(F)F)cc1C(F)(F)F (stereo not shown) [F63, (Z)-4-(3-(3-Chloro-4-fluorophenyl)-1,4,4,4-tetrafluorobut-1-en-1-yl)-N-(3,3-difluorocyclobutyl)-2-(trifluoromethyl)benzamide] | 50 to 100% |  | 50 to 100% |  |  |  |  |
| O=C(NCC(F)(F)F)c1ccc(/C(F)=C/C(c2cc(Cl)c(Cl)c(Cl)c2)C(F)(F)F)cc1 (stereo not shown) [FC1, (Z)-4-(1,4,4,4-tetrafluoro-3-(3,4,5-trichlorophenyl)but-1-en-1-yl)-N-(2,2,2-trifluoroethyl)benzamide] |  |  |  | 25% | 0% | 100% | 6% |
| O=C(NC1CCC(F)(F)CC1)c1ccc(/C(F)=C/C(c2cc(Cl)c(Cl)c(Cl)c2)C(F)(F)F)cc1C(F)(F)F (stereo not shown) [F4, (Z)—N-(4,4-Difluorocyclohexyl)-4-(1,4,4,4-tetrafluoro-3-(3,4,5-trichlorophenyl)but-1-en-1-yl)-2-(trifluoromethyl)benzamide] | 50 to 100% |  | 50 to 100% |  |  |  |  |
| O=C(c1ccc(/C(F)=C/C(c2cc(Cl)c(Cl)c(Cl)c2)C(F)(F)F)cc1Br)N1CCCC1 (stereo not shown) [F5, (Z)-(2-Bromo-4-(1,4,4,4-tetrafluoro-3-(3,4,5-trichlorophenyl)but-1-en-1-yl)phenyl)(pyrrolidin-1-yl)methanone] | 50 to 100% |  | 50 to 100% |  |  |  |  |
| O=C(NC1CCC(F)(F)CC1)c1ccc(/C(F)=C/C(c2cc(Cl)c(Cl)c(Cl)c2)C(F)(F)F)cc1Cl (stereo not shown) [F9, (Z)-2-Chloro-N-(4,4-difluorocyclohexyl)-4-(1,4,4,4-tetrafluoro-3-(3,4,5-trichlorophenyl)but-1-en-1-yl)benzamide] | 50 to 100% |  | 50 to 100% |  |  |  |  |
| Cc1ccc([C@@H](C)NC(=O)c2ccc(/C(F)=C/C(c3cc(Cl)c(Cl)c(Cl)c3)C(F)(F)F)cc2C(F)(F)F)cc1 (stereo partly drawn) [F8, 4-((Z)-1,4,4,4-Tetrafluoro-3-(3,4,5-trichlorophenyl)but-1-en-1-yl)-N—((R)-1-(p-tolyl)ethyl)-2-(trifluoromethyl)benzamide] | 50 to 100% |  | 50 to 100% |  |  |  |  |
